Consider six compounds from BindingDB's records for doi:10.1016/j.bmcl.2008.12.050 (Merck Research Laboratories, 2009).

Structures can show the parent of a compound that is named as a salt.

The experiment can be described thus: Antagonist activity at human CCR2 receptor expressed in CHO cells by chemotaxis assay.
With `CC(C)[C@]1(C(=O)NCc2cc(C(F)(F)F)cc(C(F)(F)F)c2)CC[C@@H](NC2CCOCC2C(F)(F)F)C1` (stereo partly drawn) [(1S,3R)-N-(3,5-bis(trifluoromethyl)benzyl)-1-isopropyl-3-(3-(trifluoromethyl)tetrahydro-2H-pyran-4-ylamino)cyclopentanecarboxamide], the midpoint of inhibition, the IC50, lay at 1 nM.

`CC1COCCC1N[C@@H]1CC[C@@](C(=O)NCc2cc(C(F)(F)F)cc(C(F)(F)F)c2)(C(C)C)C1` (stereo partly drawn) [(1S,3R)-N-(3,5-bis(trifluoromethyl)benzyl)-1-isopropyl-3-(3-methyltetrahydro-2H-pyran-4-ylamino)cyclopentanecarboxamide]: the concentration for half-maximal inhibition (IC50) (in general, the concentration that gives 50% inhibition) stood at 0.1 nM.

`CCCC1COCCC1N[C@@H]1CC[C@@](C(=O)NCc2cc(C(F)(F)F)cc(C(F)(F)F)c2)(C(C)C)C1` (stereo partly drawn) [(1S,3R)-N-(3,5-bis(trifluoromethyl)benzyl)-1-isopropyl-3-(3-propyltetrahydro-2H-pyran-4-ylamino)cyclopentanecarboxamide] had a concentration for half-maximal inhibition (IC50) of 5.1 nM.

`CC(C)[C@]1(C(=O)NCc2cc(C(F)(F)F)cc(C(F)(F)F)c2)CC[C@@H](NC2COC2)C1` [(1S,3R)-N-(3,5-bis(trifluoromethyl)benzyl)-1-isopropyl-3-(oxetan-3-ylamino)cyclopentanecarboxamide trifluoroacetate] gave a concentration for half-maximal inhibition (IC50) of 3.3 nM.

`CCC1COCCC1N[C@@H]1CC[C@@](C(=O)NCc2cc(C(F)(F)F)cc(C(F)(F)F)c2)(C(C)C)C1` (stereo partly drawn) [(1S,3R)-N-(3,5-bis(trifluoromethyl)benzyl)-3-(3-ethyltetrahydro-2H-pyran-4-ylamino)-1-isopropylcyclopentanecarboxamide] had an IC50 of 0.3 nM.

Compound `CC(C)[C@]1(C(=O)NCc2cc(C(F)(F)F)cc(C(F)(F)F)c2)CC[C@@H](NC2CCOCC2F)C1` (stereo partly drawn) [(1S,3R)-N-(3,5-bis(trifluoromethyl)benzyl)-3-(3-fluorotetrahydro-2H-pyran-4-ylamino)-1-isopropylcyclo pentanecarboxamide] registered an IC50 of 0.8 nM.
